# Source: publication PMC11766344, “HGS Promotes Tumor Growth, Whereas the Coiled-Coil Domain and Its Oligopeptide of HGS Suppress It” (International Journal of Molecular Sciences, 2025)
# Entries after “also recorded” stand apart in the source; their conditions may differ.
# What was measured:
# [1] = tested on: COLO 205 cells; assay: In vitro anchorage-independent growth inhibition test, ULAS plate; format: cell-based, human; conditions: 2 × 10^3 cells/well, ULAS 96-well plate, Opti-MEM 5% FBS, 7 days, 37 °C, Cell Counting Kit-8 A450 nm
# Text: The effect of OP12-462 on anchorage-independent growth was examined; normal cells can proliferate in an anchorage-dependent manner but cannot in an anchorage-independent manner, whereas cancer cells can both proliferate in the anchorage-independent manner and form tumors. In normal (adhesion) plates, cancer cells adhere to the surface of plates and proliferate in the anchorage-dependent manner, so the anchorage-independent growth ability of the cancer cells cannot be observed. In ultra-low attachment surface (ULAS) plates, the cancer cells cannot adhere to the surface nor proliferate in the anchorage-dependent manner but can proliferate in the anchorage-independent manner. By measuring the proliferation ability of cancer cells on the ULAS plates, we can determine the anchorage-independent growth ability of the cells. […] Next, the effect of OP12-462 on tumor growth was examined. COLO 205 cells were inoculated subcutaneously into the back of BALB/cSlc-nu/nu nude mice. […]
# After 7 days, 0.1 mL of Cell Counting Kit-8 solution (5-fold PBS diluted solution) was added, and the absorbance A450 nm was immediately measured and set as the T0 blank value. After incubating at 37 °C for 2 h, the absorbance A450 nm was measured again and set as T2. The absorbance difference between T2 and T0 was defined as the anchorage-independent or anchorage-dependent growth activity value.
# [2] = tested on: MDCK normal cells; assay: Anchorage-dependent growth in normal adhesion plates, MDCK normal cells; format: cell-based, canine
# Text: (§1) The effect of OP12-462 on anchorage-independent growth was examined; normal cells can proliferate in an anchorage-dependent manner but cannot in an anchorage-independent manner, whereas cancer cells can both proliferate in the anchorage-independent manner and form tumors. In normal (adhesion) plates, cancer cells adhere to the surface of plates and proliferate in the anchorage-dependent manner, so the anchorage-independent growth ability of the cancer cells cannot be observed. In ultra-low attachment surface (ULAS) plates, the cancer cells cannot adhere to the surface nor proliferate in the anchorage-dependent manner but can proliferate in the anchorage-independent manner. By measuring the proliferation ability of cancer cells on the ULAS plates, we can determine the anchorage-independent growth ability of the cells. […] Next, the effect of OP12-462 on tumor growth was examined. COLO 205 cells were inoculated subcutaneously into the back of BALB/cSlc-nu/nu nude mice. The day when the tumor volume exceeded 250 mm^3 was set as day 0, and OP12-462 (50 mg/kg body weight) in 0.2 mL of PBS solution or vehicle (PBS) was administered once a day into the tail vein for 10 days from day 0 to day 9.
# [3] = tested on: COLO205 cells; assay: Oligopeptide tumor growth inhibition test, subcutaneous COLO205 tumors in nude mice; format: in vivo, nude mice (BALB/cSlc-nu/nu)
# Text: The effect of OP12-462 on anchorage-independent growth was examined; normal cells can proliferate in an anchorage-dependent manner but cannot in an anchorage-independent manner, whereas cancer cells can both proliferate in the anchorage-independent manner and form tumors. In normal (adhesion) plates, cancer cells adhere to the surface of plates and proliferate in the anchorage-dependent manner, so the anchorage-independent growth ability of the cancer cells cannot be observed. In ultra-low attachment surface (ULAS) plates, the cancer cells cannot adhere to the surface nor proliferate in the anchorage-dependent manner but can proliferate in the anchorage-independent manner. By measuring the proliferation ability of cancer cells on the ULAS plates, we can determine the anchorage-independent growth ability of the cells. […]
# After a 2-week acclimation period, 8-week-old female C57BL/6 or nude mice were randomly divided into groups. […] Tumor formation was monitored for 4 or 5 weeks after the inoculation by measuring the width (W) and length (L) of the tumors with W < L. The tumor volume was calculated according to the formula (W2 × L × π/6).
# The cells were resuspended at a cell density of 1 × 10^6 cells in 100 µL of PBS and were inoculated subcutaneously into the flank region of 8-week-old female nude mice. […] Tumor sizes were measured daily.
# [4] = Body weight and acute toxicity in tumor-bearing nude mice given OP12-462; format: in vivo, nude mice (BALB/cSlc-nu/nu)
# Text: as §1
# The cells were resuspended at a cell density of 1 × 10^6 cells in 100 µL of PBS and were inoculated subcutaneously into the flank region of 8-week-old female nude mice. The day when the tumor volume exceeded 250 mm^3 was set as Day 0, and oligopeptide OP12-462 (50 mg/kg body weight) was administered as a 0.2 mL PBS solution in the tail vein once daily for 10 days from Day 0 to Day 9. Tumor sizes were measured daily.
# [5] = tested on: normal or cancer cells; assay: Acute toxicity to cells in vitro; format: cell-based
# Text: HGS/C and oligopeptides constituting HGS/C, including OP12-462, might be new tumor growth inhibitors that suppress tumor growth by inhibiting the anchorage-independent growth ability of cancer cells rather than directly destroying cancer cells. […] HGS/C and the OP12-462 are novel inhibitors of TGF-β-SMAD and Wnt-β-catenin signal transduction. They not only have a novel tumor growth suppression effect but also have the potential to become novel medicines for diseases, including various fibrosis diseases, whose symptoms worsen owing to the enhancement of these signal transduction pathways. Potential drug targets of EMT in metastasis are now in development. HGS and HGS/C are an inducer and an inhibitor of EMT and tumorigenesis. Therefore, HGS and HGS/C could be good targets of EMT-blocking drugs for clinical application.
sequence,measurement,setting,value
"ERRLYYEGLQDK [OP12-462, oligopeptide of 12 amino acid residues (…) constituting the coiled-coil domain of HGS]",Anchorage-independent growth activity,[1],inhibited the anchorage-independent growth activity of COLO 205 cells (Figure 5b) in a concentration-dependent manner
same,Anchorage-dependent growth of MDCK normal cells,[2],did not inhibit
same,Tumor growth (tumor volume) versus vehicle,"[3]; 50 mg/kg body weight in 0.2 mL PBS, tail vein, once daily for 10 days (day 0 to day 9), day 0 = tumor volume exceeded 250 mm^3, nude mice, n = 5",statistically significant from the third day onwards; also recorded: significantly suppressed the growth of the tumor
same,Duration of tumor growth suppression after end of administration,"[3]; 50 mg/kg tail vein once daily day 0 to day 9, nude mice with COLO205 tumors",for more than two weeks after the administration had ended
same,Average body weight / weight loss,[4]; 50 mg/kg tail vein for 10 consecutive days,no change in the average body weight; also recorded: did not result in weight loss
same,Acute toxicity due to administration,[4]; 50 mg/kg tail vein once daily for 10 days,No acute toxicity
same,Changes in body weight of each mouse,"[4]; ten days after administration, 50 mg/kg tail vein once daily for 10 days",−0.4% to +2
same,Acute toxicity to normal or cancer cells in vitro,[5],no acute toxicity
